From US9624277B2, “Anticancer agent” (AMRITA THERAPEUTICS LIMITED, priority 2010, dated 2017)
No end group written: not given here.

How the values were obtained:
HepG2 liver cancer = conditions: HepG2 cells (liver cancer), 24 h, MTT; MPT-63 at 1, 5 and 10 μM
U87 human glioblastoma = conditions: U87 cells (brain cancer), 24 h, MTT; MPT-63 at 1, 5 and 10 μM
[1] = system: UM-UC-3 bladder cancer cell line; experiment: MTT cytotoxicity assay, UM-UC-3 bladder carcinoma cell line; type: cell-based, human; conditions: UM-UC-3 cells, 1.0 and 10 μM, 24 h
Excerpt: ATCC: UM-UC-3: Human cell line with epithelial-like characteristics established from a high grade invasive urinary bladder carcinoma of a patient. This is a hypertriploid human cell line and IFN non responsive. This cell line is tumorigenic in nature.

MDA-MB-231 breast cancer = conditions: MDA-MB-231 cells (breast cancer), 24 h, MTT; MPT-63 at 1, 5 and 10 μM
[2] = system: CaSki cervix cancer cell line; conditions: CaSki cells, compared with MB30, MTT
Procedure: (§1) The viability of the cells was estimated by using MTT assay on the basis of formazan formed, which was detected spectrophotometrically by optical density at 570 nm at 24 h, 48 h and 72 h [Bar-mean±S.E.].
All cell lines were grown under standard conditions in humidified 37° C. incubator in 5% CO2 as described earlier (Garg et al., 2009; Kanojia et al., 2010).
(§2) MTT [3-(4, 5-dimethylthiazol-2-yl)-2,5-diphenyl tetrazolium bromide] assay was carried out for measurement of the cytotoxicity of different anticancer peptides. The water soluble tetrazolium salt, MTT [3-(4,5-dimethylthiazol-2-yl)-2,5-diphenyl tetrazolium bromide] is metabolized to the water insoluble formazan by intact mitochondrial dehydrogenases. The formazan is then solubilized by adding 2-propanol+40 mM HCl for 4 h incubation. […] The viability of the cells was estimated on the basis of formazan formed, which was detected spectrophotometrically by optical density at 570 nm at 24 h, 48 h and 72 h. At every time point such as 24 h, 48 h and 72 h, 1×10^4 cells were seeded without the peptide in triplicate in each plate for a given treatment of peptide. This was used as control cytotoxicity levels to calculate the percent cell cytotoxicity of every peptide treatment. […] All the experiments were carried out in triplicates and repeated three times.

[3] = system: SiHa cervix cancer cell line; conditions: SiHa cells, compared with MB30, MTT
Procedure: as §1, §2

[4] = system: HCT 116 colorectal cancer cell line; type: cell-based, human; conditions: HCT 116 cells, compared with MB30, MTT
Excerpt: ATCC HCT 116: Human cell line with epithelial-like characteristics established from colorectal carcinoma from an adult patient. The cells are positive for keratin by immunoperoxidase staining. HCT 116 cells are positive for transforming growth factor beta 1 (TGF beta 1) and beta 2 (TGF beta 2) expression. This line has a mutation in codon 13 of the ras protooncogene, and can be used as a positive control for PCR assays of mutation in this codon.

GQVWEATATVNAIRGSVTPAVSQFNARTAD [MB30]
cytotoxicity (in words) (HepG2 liver cancer): better cytotoxicity in comparison to the full length protein MPT-63 | cytotoxicity (in words) (U87 human glioblastoma): better cytotoxicity in comparison to the full length protein MPT-63 | cytotoxicity levels (in words) [1]: higher cytotoxicity levels than the other peptide | cytotoxicity (in words) (MDA-MB-231 breast cancer): better cytotoxicity in comparison to the full length protein MPT-63

NHFTLKCPKTALTEPPTLAY [TG20]
cytotoxicity (in words) [2]: less cytotoxicity | cytotoxicity (in words) [3]: less cytotoxicity | cytotoxicity (in words) [4]: less cytotoxicity

TAGIKLTVPIEKFPVTTQTFVVG [TG23]
cytotoxicity (in words) [2]: less cytotoxicity | cytotoxicity levels (in words) [1]: higher cytotoxicity levels than the other peptide | cytotoxicity (in words) [3]: less cytotoxicity | cytotoxicity (in words) [4]: less cytotoxicity

B1: MPT-63 (protein, listed as Mycobacterium bovis)
chain: MKLTTMIKTAVAVVAMAAIATFAEPVALAAYPITGKLGSELTMTDTVGQVVLGWKVSDLKSSTAVIPGYPVAGQVWEATATVNAIRGSVTPAVSQFNARTADGINYRVLWQAAGPDTISGATIPQGEQSTGKIYFDVTGPSPTIVAMNNGMQDLLIWEP
cytotoxicity (in words) (HepG2 liver cancer): shown cytotoxicity | cytotoxicity (in words) (U87 human glioblastoma): shown cytotoxicity | cytotoxicity (in words) (MDA-MB-231 breast cancer): shown cytotoxicity
